In patent US20110230467A1, “4,6-DIAMINONICOTINAMIDE COMPOUND” (Astellas Pharma Inc., priority 2008, published 2011) one finds IC50 data, which are given here for 30 molecules.

The target of the experiment is T1, human JAK3 kinase domain (Homo sapiens, UniProt P52333).
T1 construct: attached to the N-terminal of the 796-1124 (C-terminal) fragment of the human JAK3 protein; His-tag (N); purchased Carna Biosciences, Inc. (Kobe, Japan); host or cells: baculovirus expression system
Description: JAK3 Inhibition Test (Test Example 1). The experiment is classed as biochemical. The conditions noted are these: purified human JAK3 kinase domain; 20 μM ATP in substrate solution; absorbance at 450 nm; read-out: IC50 (JAK3 inhibitory activity). The text has this:
(1) Preparation of Human JAK3
Purified human JAK3 kinase domain was purchased from Carna Biosciences, Inc. (Kobe, Japan). This was afforded as described below. His-tag (41 kDa) was attached to the N-terminal of the 796-1124 (C-terminal) fragment of the human JAK3 protein (accession number #NM_000215), expressed using a baculovirus expression system, and then purified using Ni-NTA affinity column chromatography.
(2) Measurement of JAK3 Activity
As substrates, Biotin-Lyn-Substrate-2 (Biotin-XEQED EPEGF YFEWL EPE), X=ε-Acp (Peptide Institute, Inc., Osaka, Japan) and ATP were used. As an assay buffer, 15 mM Tris-HCl, pH 7.5, containing 0.01% Tween 20, and 2 mM DTT (dithiothreitol) was used. Normally, 20 μL of a substrate solution (an assay buffer containing 627 nM Biotin-Lyn-Substrate-2, 20 μM ATP, and 25 mM MgCl2), an assay buffer containing 10 μL of a compound to be tested, and 20 μL of an enzyme solution were added to a microplate, and stirred sufficiently.
After incubation at room temperature for one hour, the plate was washed with a cleaning buffer (50 mM Tris-HCl pH 7.5, 150 mM NaCl, 0.02% Tween 20), and a blocking buffer (a cleaning buffer containing 0.1% Bovine Serum Albumin) was added to the plate. After incubation at room temperature for 30 minutes, the blocking buffer was removed, and an HRP-PY-20 solution (afforded by diluting the HRP-PY-20 solution with the blocking buffer 500 times) was added. After incubation at room temperature for 30 minutes, the plate was washed four times, and a TMB substrate solution (Sigma) was added to the plate. After incubation at room temperature for 4 minutes, 1 M sulfuric acid was added to stop the reaction. Enzyme activity was measured as an absorbance at 450 nm. The JAK3 inhibitory activity of the test compound was calculated assuming that the concentration of the test compound inhibiting JAK3 activity by 50% is an IC50 value.

The term IC50 denotes the concentration that inhibits the measured activity by half.

T1 sequence (P52333 796-1124): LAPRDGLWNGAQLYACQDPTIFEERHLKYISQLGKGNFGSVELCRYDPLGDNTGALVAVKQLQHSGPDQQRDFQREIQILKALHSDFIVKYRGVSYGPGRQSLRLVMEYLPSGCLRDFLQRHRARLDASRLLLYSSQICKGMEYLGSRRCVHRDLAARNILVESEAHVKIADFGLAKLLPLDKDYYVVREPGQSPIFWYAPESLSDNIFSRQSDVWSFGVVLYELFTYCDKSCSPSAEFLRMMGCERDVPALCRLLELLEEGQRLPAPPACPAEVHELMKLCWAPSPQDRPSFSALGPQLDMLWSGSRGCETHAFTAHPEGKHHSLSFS

On to `Cc1nccc(Nc2cc(NC3CCN(c4ccc(C#N)cn4)CC3)c(C(N)=O)cn2)n1` [Example 5-9], for which the IC50 was determined as 0.36 nM.
For the molecule `N#Cc1ccc(N2CC[C@@H](Nc3cc(Nc4ccc(N5CCCCC5=O)cn4)ncc3C(N)=O)[C@@H](F)C2)nc1` [Example 5-55], the 50% inhibitory concentration (IC50) turned out to be 0.74 nM.
As for `N#Cc1ccc(N2CC[C@@H](Nc3cc(Nc4cnccn4)ncc3C(N)=O)[C@@H](F)C2)nc1` [Example 5-7], the IC50 worked out at 0.21 nM.
Under `N#Cc1ccc(N2CC[C@@H](Nc3cc(Nc4ccncn4)ncc3C(N)=O)[C@@H](F)C2)nc1` [Example 5-10] stands 0.29 nM; under `CN1CCCN(C(=O)c2ccc(Nc3cc(NCc4c(F)cccc4F)c(C(N)=O)cn3)nc2)CC1` [Example 8-9], 1.6 nM; under `CN1CCC(=O)N(c2ccc(Nc3cc(NCc4c(F)cccc4F)c(C(N)=O)cn3)nc2)CC1` [Example 12-97], 0.25 nM.
Then `NC(=O)c1cnc(Nc2ccc(N3CCCCC3=O)cn2)cc1NCc1c(F)ccc(F)c1F` [Example 12-54], with 0.69 nM; and `Cc1nccc(Nc2cc(N[C@@H]3CCN(c4ccc(C#N)cn4)C[C@@H]3F)c(C(N)=O)cn2)n1` [Example 5-26], with 0.39 nM.
Under `N#Cc1ccc(N2CCC(Nc3cc(Nc4ccc(N5C(=O)[C@H]6CC[C@@H]5C6)cn4)ncc3C(N)=O)CC2)nc1` [Example 5-67] stands 0.9 nM; under `Cc1nccc(Nc2cc(NC3CCN(c4ccc(C#N)cc4)CC3)c(C(N)=O)cn2)n1` [Example 5-8], 0.8 nM.
In the case of `NC(=O)c1cnc(Nc2ccc(N3C(=O)[C@@H]4CC[C@H]3C4)cn2)cc1NCc1c(F)ccc(F)c1F` [Example 12-78], the IC50 came out at 0.69 nM.
Then `NC(=O)c1cnc(Nc2cnccn2)cc1NCc1c(F)ccc(F)c1F` [Example 12-50], with 1 nM.
Then `CN1CCN(C(=O)c2ccc(Nc3cc(NCc4c(F)cccc4F)c(C(N)=O)cn3)nc2)CC1` [Example 8-8], with 1 nM; and `N#Cc1ccc(N2CCC(Nc3cc(Nc4ccc(N5CCCC5=O)cn4)ncc3C(N)=O)CC2)nc1` [Example 5-46], with 0.86 nM.
For the molecule `COC1CCN(C(=O)c2ccc(Nc3cc(NCc4c(F)cccc4F)c(C(N)=O)cn3)nc2)CC1` [Example 8-7], the IC50 is 0.8 nM.
Then `N#Cc1ccc(N2CCC(Nc3cc(Nc4ccncn4)ncc3C(N)=O)CC2)nn1` [Example 5-18], with 1.1 nM; and `N#Cc1ccc(N2CCC(Nc3cc(Nc4ccncn4)ncc3C(N)=O)CC2)cn1` [Example 5-25], with 0.24 nM; and `CN1CCN(c2ccc(Nc3cc(NCc4c(F)ccc(F)c4F)c(C(N)=O)cn3)nc2)C(=O)C1` [Example 12-73], with 0.58 nM.
Under `CN1C(=O)N(c2ccc(Nc3cc(NCc4c(F)ccc(F)c4F)c(C(N)=O)cn3)nc2)C(=O)C1(C)C` [Example 12-91] stands 0.44 nM; under `N#Cc1ccc(N2CC[C@@H](Nc3cc(Nc4cnccn4)ncc3C(N)=O)[C@@H](F)C2)nn1` [Example 5-11], 0.34 nM.
Under `NC(=O)c1cnc(Nc2ccc(N3CCOCC3=O)cn2)cc1NCc1c(F)ccc(F)c1F` [Example 12-76] stands 0.43 nM; under `N#Cc1ccc(N2CC[C@@H](Nc3cc(Nc4ccccn4)ncc3C(N)=O)[C@@H](F)C2)nc1` [Example 5-72], 0.14 nM.
For the molecule `NC(=O)c1cnc(Nc2ccc(N3CCOCCC3=O)cn2)cc1NCc1c(F)ccc(F)c1F` [Example 12-81], the IC50 came to 0.56 nM.
Under `NC(=O)c1cnc(Nc2ccc(N3CCCCCC3=O)cn2)cc1NCc1c(F)ccc(F)c1F` [Example 12-79] stands 0.79 nM; under `N#Cc1cnc(N2CC[C@@H](Nc3cc(Nc4ccncn4)ncc3C(N)=O)[C@@H](F)C2)cn1` [Example 5-15], 1 nM; under `NC(=O)c1cnc(Nc2ccc(C(=O)N3CCCC3)cn2)cc1NCc1c(F)cccc1F` [Example 8-6], 0.74 nM.
Take `COCc1ccc(Nc2cc(N[C@@H]3CCN(c4ccc(C#N)cn4)C[C@@H]3F)c(C(N)=O)cn2)nc1` [Example 5-73]: the IC50 amounted to 0.24 nM.
Under `NC(=O)c1cnc(Nc2ccc(N3C(=O)[C@H]4CC[C@@H]3C4)cn2)cc1NCc1c(F)ccc(F)c1F` [Example 12-80] stands 0.69 nM; under `CN1CCC(=O)N(c2ccc(Nc3cc(NCc4c(F)ccc(F)c4F)c(C(N)=O)cn3)nc2)CC1` [Example 12-74], 0.74 nM.
As for `Cc1cnc(Nc2cc(NC3CCN(c4ccc(C#N)nn4)CC3)c(C(N)=O)cn2)cn1` [Example 5-22], the IC50 amounted to 2 nM.
